According to ChEMBL document CHEMBL2311520, “Total synthesis of AMF-26, an antitumor agent for inhibition of the Golgi system, targeting ADP-ribosylation factor 1” (J Med Chem, 2013):
Activity calls are given as the source filed them. The rule behind the calls is not given here.

Experiments:
PC-3 = test: Growth inhibition of human PC3 cells after 48 hrs by Sulforhodamine B assay; format: functional; details: PC-3, 48 h
DU-145 = test: Growth inhibition of human DU145 cells after 48 hrs by Sulforhodamine B assay; format: functional; details: DU-145, 48 h
MKN-74 = test: Growth inhibition of human MKN74 cells after 48 hrs by Sulforhodamine B assay; format: functional; details: MKN-74, 48 h
MKN-7 = test: Growth inhibition of human MKN7 cells after 48 hrs by Sulforhodamine B assay; format: functional; details: MKN-7, 48 h
MKN-28 = test: Growth inhibition of human MKN28 cells after 48 hrs by Sulforhodamine B assay; format: functional; details: MKN-28, 48 h
St-4 = test: Growth inhibition of human St-4 cells after 48 hrs by Sulforhodamine B assay; format: functional; details: St-4, 48 h
[1] = Growth inhibition of human RXF631L cells after 48 hrs by Sulforhodamine B assay; format: functional; details: RXF 631, 48 h
ACHN = test: Growth inhibition of human ACHN cells after 48 hrs by Sulforhodamine B assay; format: functional
SK-OV-3 = test: Growth inhibition of human SKOV3 cells after 48 hrs by Sulforhodamine B assay; format: functional; details: SK-OV-3, 48 h
OVCAR-3 = test: Growth inhibition of human OVCAR3 cells after 48 hrs by Sulforhodamine B assay; format: functional; details: OVCAR-3, 48 h
OVCAR-5 = test: Growth inhibition of human OVCAR5 cells after 48 hrs by Sulforhodamine B assay; format: functional; details: OVCAR-5, 48 h
LOX IMVI = test: Growth inhibition of human LOXIMVI cells after 48 hrs by Sulforhodamine B assay; format: functional
DMS-114 = test: Growth inhibition of human DMS114 cells after 48 hrs by Sulforhodamine B assay; format: functional; details: DMS-114, 48 h
A549 = test: Growth inhibition of human A549 cells after 48 hrs by Sulforhodamine B assay; format: functional; details: A549, 48 h
DMS-273 = test: Growth inhibition of human DMS273 cells after 48 hrs by Sulforhodamine B assay; format: functional; details: DMS-273, 48 h
NCI-H460 = test: Growth inhibition of human NCI-H460 cells after 48 hrs by Sulforhodamine B assay; format: functional; details: NCI-H460, 48 h
NCI-H522 = test: Growth inhibition of human NCI-H522 cells after 48 hrs by Sulforhodamine B assay; format: functional; details: NCI-H522, 48 h
NCI-H23 = test: Growth inhibition of human NCI-H23 cells after 48 hrs by Sulforhodamine B assay; format: functional; details: NCI-H23, 48 h
HCT-116 = test: Growth inhibition of human HCT116 cells after 48 hrs by Sulforhodamine B assay; format: functional; details: HCT-116, 48 h
HCT-15 = test: Growth inhibition of human HCT15 cells after 48 hrs by Sulforhodamine B assay; format: functional; details: HCT-15, 48 h
SNB-78 = test: Growth inhibition of human SNB-78 cells after 48 hrs by Sulforhodamine B assay; format: functional; details: SNB-78, 48 h
[2] = Growth inhibition of human HCC2998 cells after 48 hrs by Sulforhodamine B assay; format: functional; details: HCC 2998, 48 h
SF-539 = test: Growth inhibition of human SF539 cells after 48 hrs by Sulforhodamine B assay; format: functional; details: SF-539, 48 h
SF-295 = test: Growth inhibition of human SF295 cells after 48 hrs by Sulforhodamine B assay; format: functional; details: SF-295, 48 h
U-251 = test: Growth inhibition of human U251 cells after 48 hrs by Sulforhodamine B assay; format: functional; details: U-251, 48 h
SF-268 = test: Growth inhibition of human SF268 cells after 48 hrs by Sulforhodamine B assay; format: functional; details: SF-268, 48 h
MCF7 = test: Growth inhibition of human MCF7 cells after 48 hrs by Sulforhodamine B assay; format: functional; details: MCF7, 48 h
[3] = Growth inhibition of human HBC5 cells after 48 hrs by Sulforhodamine B assay; format: functional; details: HBC5, 48 h
[4] = Growth inhibition of human HBC4 cells after 48 hrs by Sulforhodamine B assay; format: functional
MKN-45 = test: Growth inhibition of human MKN45 cells after 48 hrs by Sulforhodamine B assay; format: functional; details: MKN-45, 48 h
[5] = Growth inhibition of human MKN1 cells after 48 hrs by Sulforhodamine B assay; format: functional; details: MKN-1, 48 h
OVCAR-4 = test: Growth inhibition of human OVCAR4 cells after 48 hrs by Sulforhodamine B assay; format: functional; details: OVCAR-4, 48 h
OVCAR-8 = test: Growth inhibition of human OVCAR8 cells after 48 hrs by Sulforhodamine B assay; format: functional; details: OVCAR-8, 48 h
NCI-H226 = test: Growth inhibition of human NCI-H226 cells after 48 hrs by Sulforhodamine B assay; format: functional; details: NCI-H226, 48 h
KM12 = test: Growth inhibition of human KM12 cells after 48 hrs by Sulforhodamine B assay; format: functional; details: KM12, 48 h
HT-29 = test: Growth inhibition of human HT-29 cells after 48 hrs by Sulforhodamine B assay; format: functional; details: HT-29, 48 h
SNB-75 = test: Growth inhibition of human SNB75 cells after 48 hrs by Sulforhodamine B assay; format: functional; details: SNB-75, 48 h
MDA-MB-231 = test: Growth inhibition of human MDA-MB-231 cells after 48 hrs by Sulforhodamine B assay; format: functional; details: MDA-MB-231, 48 h
[6] = Growth inhibition of human BSY1 cells after 48 hrs by Sulforhodamine B assay; format: functional; details: BSY-1, 48 h
[7] = Induction of golgi disassembly in human HBC4 cells assessed as presence of GBF1 in cytoplasm after 1 hr by immunofluorescence microscopy; format: functional, cell-based
[8] = Induction of golgi disassembly in human BSY1 cells assessed as presence of GBF1 in cytoplasm after 1 hr by immunofluorescence microscopy; format: functional, cell-based; details: bsy-1
HBC4 = test: Induction of golgi disassembly in human HBC4 cells assessed as presence of GBF1 in cytoplasm at 10 uM after 1 hr by immunofluorescence microscopy; format: functional, cell-based
BSY-1 = test: Induction of golgi disassembly in human BSY1 cells assessed as presence of GBF1 in cytoplasm at 1 uM after 1 hr by immunofluorescence microscopy; format: functional, cell-based

Compound: C/C(=C\C=C\[C@@H]1[C@H]2[C@H](C)[C@@H](O)[C@H](C)C[C@@H]2C=C[C@@H]1C)C(=O)NCc1cccnc1 (stereo in doubt; form 1)
- GI50 (PC-3; read-out: logGI50 (converted)): 45.7 nM
- GI50 (DU-145; read-out: logGI50 (converted)): 245 nM
- GI50 (MKN-74; read-out: logGI50 (converted)): 56.2 nM
- GI50 (MKN-7; read-out: logGI50 (converted)): 50.1 nM
- GI50 (MKN-28; read-out: logGI50 (converted)): 79.4 nM
- GI50 (St-4; read-out: logGI50 (converted)): 195 nM
- GI50 ([1]; read-out: logGI50 (converted)): 53.7 nM
- GI50 (ACHN; read-out: logGI50 (converted)): 47.9 nM
- GI50 (SK-OV-3; read-out: logGI50 (converted)): 41.7 nM
- GI50 (OVCAR-3; read-out: logGI50 (converted)): 33.1 nM
- GI50 (OVCAR-5; read-out: logGI50 (converted)): 38.9 nM
- GI50 (LOX IMVI; read-out: logGI50 (converted)): 22.9 nM
- GI50 (DMS-114; read-out: logGI50 (converted)): 39.8 nM
- GI50 (A549; read-out: logGI50 (converted)): 57.5 nM
- GI50 (DMS-273; read-out: logGI50 (converted)): 53.7 nM
- GI50 (NCI-H460; read-out: logGI50 (converted)): 91.2 nM
- GI50 (NCI-H522; read-out: logGI50 (converted)): 123 nM
- GI50 (NCI-H23; read-out: logGI50 (converted)): 53.7 nM
- GI50 (HCT-116; read-out: logGI50 (converted)): 40.7 nM
- GI50 (HCT-15; read-out: logGI50 (converted)): 70.8 nM
- GI50 (SNB-78; read-out: logGI50 (converted)): 51.3 nM
- GI50 ([2]; read-out: logGI50 (converted)): 39.8 nM
- GI50 (SF-539; read-out: logGI50 (converted)): 52.5 nM
- GI50 (SF-295; read-out: logGI50 (converted)): 58.9 nM
- GI50 (U-251; read-out: logGI50 (converted)): 58.9 nM
- GI50 (SF-268; read-out: logGI50 (converted)): 44.7 nM
- GI50 (MCF7; read-out: logGI50 (converted)): 42.7 nM
- GI50 ([3]; read-out: logGI50 (converted)): 34.7 nM
- GI50 ([4]; read-out: logGI50 (converted)): 41.7 nM
- GI50 (MKN-45; read-out: logGI50 (converted)): 31.6 nM
- GI50 ([5]; read-out: logGI50 (converted)): 30.2 nM
- GI50 (OVCAR-4; read-out: logGI50 (converted)): 31.6 nM
- GI50 (OVCAR-8; read-out: logGI50 (converted)): 39.8 nM
- GI50 (NCI-H226; read-out: logGI50 (converted)): 23.4 nM
- GI50 (KM12; read-out: logGI50 (converted)): 35.5 nM
- GI50 (HT-29; read-out: logGI50 (converted)): 33.9 nM
- GI50 (SNB-75; read-out: logGI50 (converted)): 23.4 nM
- GI50 (MDA-MB-231; read-out: logGI50 (converted)): 24 nM
- GI50 ([6]; read-out: logGI50 (converted)): 12.6 nM

Compound: C[C@@H]1[C@@H](O)[C@H](C)C[C@@H]2C=C[C@H](C)[C@H](/C=C/C(=O)NCc3cccnc3)[C@@H]12
- EC50 [7]: > 10000 nM
- EC50 [8]: > 10000 nM
- Activity (HBC4): inactive
- Activity (BSY-1): inactive
- GI50 ([4]; Homo sapiens, HBC4, 48 h, read-out: GI50): > 10000 nM
- GI50 ([6]; read-out: GI50): > 10000 nM

Compound: C/C(=C\C=C\[C@@H]1[C@H]2[C@H](C)[C@@H](O)[C@H](C)C[C@@H]2C=C[C@@H]1C)C(=O)NCc1cccnc1 (stereo in doubt; form 2)
- GI50 (PC-3; read-out: pGI50 (converted)): 46.8 nM
- GI50 (DU-145; read-out: pGI50 (converted)): 219 nM
- GI50 (MKN-74; read-out: pGI50 (converted)): 81.3 nM
- GI50 (MKN-7; read-out: pGI50 (converted)): 66.1 nM
- GI50 (MKN-28; read-out: pGI50 (converted)): 83.2 nM
- GI50 (St-4; read-out: pGI50 (converted)): 214 nM
- GI50 ([1]; read-out: pGI50 (converted)): 112 nM
- GI50 (ACHN; read-out: pGI50 (converted)): 81.3 nM
- GI50 (SK-OV-3; read-out: pGI50 (converted)): 44.7 nM
- GI50 (OVCAR-3; read-out: pGI50 (converted)): 46.8 nM
- GI50 (OVCAR-5; read-out: pGI50 (converted)): 41.7 nM
- GI50 (LOX IMVI; read-out: GI50): 33.1 nM
- GI50 (LOX IMVI; read-out: pGI50 (converted)): 33.1 nM
- GI50 (DMS-114; read-out: pGI50 (converted)): 52.5 nM
- GI50 (A549; read-out: pGI50 (converted)): 51.3 nM
- GI50 (DMS-273; read-out: pGI50 (converted)): 79.4 nM
- GI50 (NCI-H460; read-out: pGI50 (converted)): 174 nM
- GI50 (NCI-H522; read-out: pGI50 (converted)): 191 nM
- GI50 (NCI-H23; read-out: pGI50 (converted)): 60.3 nM
- GI50 (HCT-116; read-out: pGI50 (converted)): 74.1 nM
- GI50 (HCT-15; read-out: pGI50 (converted)): 126 nM
- GI50 (SNB-78; read-out: pGI50 (converted)): 58.9 nM
- GI50 ([2]; read-out: pGI50 (converted)): 47.9 nM
- GI50 (SF-539; read-out: pGI50 (converted)): 58.9 nM
- GI50 (SF-295; read-out: pGI50 (converted)): 100 nM
- GI50 (U-251; read-out: pGI50 (converted)): 70.8 nM
- GI50 (SF-268; read-out: pGI50 (converted)): 51.3 nM
- GI50 (MCF7; read-out: pGI50 (converted)): 47.9 nM
- GI50 ([3]; read-out: pGI50 (converted)): 41.7 nM
- GI50 ([4]; Homo sapiens, HBC4, 48 h, read-out: logGI50 (converted)): 46.8 nM
- GI50 (MKN-45; read-out: GI50): 27.5 nM
- GI50 (MKN-45; read-out: pGI50 (converted)): 27.5 nM
- GI50 ([5]; read-out: GI50): 36.3 nM
- GI50 ([5]; read-out: pGI50 (converted)): 36.3 nM
- GI50 (OVCAR-4; read-out: GI50): 34.7 nM
- GI50 (OVCAR-4; read-out: pGI50 (converted)): 34.7 nM
- GI50 (OVCAR-8; read-out: GI50): 37.2 nM
- GI50 (OVCAR-8; read-out: pGI50 (converted)): 37.1 nM
- GI50 (NCI-H226; read-out: GI50): 30.9 nM
- GI50 (NCI-H226; read-out: pGI50 (converted)): 30.9 nM
- GI50 (KM12; read-out: GI50): 35.5 nM
- GI50 (KM12; read-out: pGI50 (converted)): 35.5 nM
- GI50 (HT-29; read-out: GI50): 33.9 nM
- GI50 (HT-29; read-out: pGI50 (converted)): 33.9 nM
- GI50 (SNB-75; read-out: GI50): 30.2 nM
- GI50 (SNB-75; read-out: pGI50 (converted)): 30.2 nM
- GI50 (MDA-MB-231; read-out: GI50): 22.9 nM
- GI50 (MDA-MB-231; read-out: pGI50 (converted)): 22.9 nM
- GI50 ([6]; read-out: GI50): 18.2 nM
- GI50 ([6]; read-out: pGI50 (converted)): 18.2 nM
